According to ChEMBL document CHEMBL1141263, “Sesquiterpenoids and cytotoxic lignans from the bark of Libocedrus chevalieri” (J Nat Prod, 2007):

Key:
[1] = system: KB; assay: Cytotoxicity against human KB cells by microculture tetrazolium assay; assay type: functional, cell-based
[2] = Inhibition of tubulin polymerization
[3] = system: L1210; assay: Cytotoxicity against mouse L1210 cells by microculture tetrazolium assay; assay type: functional, cell-based

Structure (SMILES)	IC50 [1]	IC50 [2]	IC50 [3]
COc1cc([C@@H]2c3cc4c(c(OC)c3[C@H](O)[C@H]3COC(=O)[C@H]23)OCO4)cc(OC)c1OC	0.011 µM	5 µM	–
COc1cc([C@@H]2c3cc4c(c(OC)c3[C@@H](O)[C@H]3COC(=O)[C@H]23)OCO4)cc(OC)c1OC	0.045 µM	9 µM	82 µM
